# Values quoted from earlier work, collected in paper PMC3606899 (Journal of molecular medicine (Berlin, Germany), 2012).
# Biological target: PHD2 (Homo sapiens, UniProt Q9GZT9)
# Experiment: PHD inhibitor screen, IC50
# Format: biochemical
# PHD2, sequence (Q9GZT9 2-426): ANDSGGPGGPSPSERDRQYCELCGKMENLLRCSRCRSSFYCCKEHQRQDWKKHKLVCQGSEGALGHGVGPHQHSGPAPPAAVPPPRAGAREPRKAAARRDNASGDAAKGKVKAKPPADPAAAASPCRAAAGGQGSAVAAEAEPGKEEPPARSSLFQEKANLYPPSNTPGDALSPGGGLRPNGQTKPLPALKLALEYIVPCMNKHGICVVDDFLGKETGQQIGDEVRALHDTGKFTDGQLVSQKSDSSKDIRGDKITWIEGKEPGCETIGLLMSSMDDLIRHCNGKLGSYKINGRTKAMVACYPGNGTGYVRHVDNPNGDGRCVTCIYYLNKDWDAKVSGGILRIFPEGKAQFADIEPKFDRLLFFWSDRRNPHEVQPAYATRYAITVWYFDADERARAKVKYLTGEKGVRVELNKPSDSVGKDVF
substance,measurement,value
AKB-4924,IC50,14 µM
